Results taken from patent US7273458B2, “Method of applying acoustic energy effective to alter transport or cell viability” (Georgia Tech Research Corporation, priority 1998, dated 2007).

Tested on: Prostate tumor cells (DU-145)
Test: Ultrasound-mediated uptake of fluorescent markers into prostate tumor cells (flow cytometry)
Assay type: cell-based
Conditions: for time decay constant τ of average uptake versus time of addition after exposure: exponential fit, calcein added ≧15 s after exposure
Procedure: Prostate tumor cells (DU-145) were suspended in RPMI-1640 medium with 10% fetal bovine serum at 5×10^5 cells/ml. For each experimental condition, a 3 ml polypropylene tube was filled with the cell suspension at room temperature (22±2° C.) and the top of the tube was closed without entrapping any air bubbles. The cells were exposed to ultrasound at 24 kHz in a chamber that consisted of a cylindrical piezoelectric transducer sandwiched between two PVC pipes and filled with deionized and degassed water at room temperature. Pressure, pulse length, duty cycle, and the total exposure time of ultrasound exposure were controlled. Acoustic spectra during exposure were collected using a hydrophone placed in the exposure chamber. Calcein, a green-fluorescent membrane-impermeant marker, dissolved in saline, was added to the suspensions either before or at various times after exposure at a final concentration of 10 μM. Other fluorescent markers, with different sizes, were also used to determine membrane permeability. The cells were kept at room temperature for 15 minutes after exposure, and then placed on ice until they were centrifuged and resuspended in phosphate-buffered saline with 0.1 mg/ml of propidium iodide (a red-fluorescence viability stain). Cell-by-cell fluorescence was measured using flow cytometry, and 6 μm green-fluorescence microspheres were added to each sample at a constant concentration to provide an internal volumetric standard for determining concentrations of viable cells.

Row | Molecule | uptake when added after ultrasound exposure (lifetime of membrane disruptions) (calcein added at different times after exposure) | average uptake when added 15 sec. after exposure compared to added before exposure (examined pressures 5.3, 7.1 and 8.0 atm) | time decay constant τ of average uptake versus time of addition after exposure (incident pressure 5.3 atm) | time decay constant τ of average uptake versus time of addition after exposure (incident pressure 7.1 atm) | time decay constant τ of average uptake versus time of addition after exposure (incident pressure 8.0 atm) | average cellular calcein uptake, plateau (ultrasound 24 kHz, increasing peak incident pressure, 20 pulses of 0.1 sec, 10% duty cycle, calcein 10 μM added before exposure) | average uptake of molecules per exposed cell, less than that of calcein (same external concentration (10 μM), exposure conditions of FIG. 7, P=8.0 atm)
1 | O=C(O)CN(CC(=O)O)Cc1cc2c(cc1O)Oc1cc(O)c(CN(CC(=O)O)CC(=O)O)cc1C21OC(=O)c2ccccc21 [calcein] | significant uptake occurred for up to two minutes after exposure | about 50 % less | 78 s | 66 s | 56 s | 20-25 % of external calcein concentration | –
2 | bovine serum albumen [BSA] | – | – | – | – | – | – | about 60 % less
